Data as given in patent US11402367B2, “Integrated multi-electrode array and trans-endothelial electrical resistance in organ-on-a-chip microsystems” (President and Fellows of Harvard College, priority 2017, dated 2022).

Experiments:
[1] = system: endothelial layer (HUVECs); assay type: cell-based, human; conditions: adherens junction staining; FIGS. 4A-4C, 9A-9B, 10A-10C
Experimental: Cardiomyocytes are seeded at 2*10^6 cell per mL in the basal microchannel, followed by 3 hours to overnight inculcation, before connecting both channels 116, 117, 216, 217 to flow at 60 microliters (“μL”)/hr. Flow is controlled by a peristaltic pump ([…]) and connections re in […] tubing (Cole-Parmer) having a 0.511 inner diameter. […] To challenge the endothelial barrier TNF (Sigma) is added at 2 μg/mL in the bottom microchannel 117, 217 during overnight flow. Isoproterenol (Sigma) 50 nanomolar (“nM”) is added to the endothelial microchannel for 30 minutes followed by MEA measurement. Chips are rinsed in phosphate-buffered saline and fixated in 4% paraformaldehyde (Sigma) for 15 minutes at room temperature. ICC is carried out after permeabilization in phosphate-buffered saline with 0.05-0.1% Triton X-100 (Sigma) and blocking for 30 minutes in 3-5% Bovine Serum Albumin (Jackson ImmunoResearch, West Grove, Pa.) or 10% goat serum in phosphate-buffered saline with 0.05-0.1% Triton-X 100. Primary antibodies are applied in 2% goat serum or 0.5% BSA over-night at 4° C. or at RT The following primary antibodies are used for ICC experiments: mouse anti-vascular endothelial (VE)-cadherin (Abcam, 1:100), alpha-actinin (Abcam, 1:200) Cells are washed three times in phosphate-buffered saline with 0.05-0.1% Triton-X 100, followed by staining with secondary antibody staining for 30-60 min at RT. […]

[2] = 100 nM isoproterenol; mono-channel fluidic system; cited from earlier work
[3] = system: human induced pluripotent stem cell-derived cardiomyocytes (hiPSC-CMs, Cor.4U); test: MEA measurement of cardiac field potentials in the MEA-TEER Heart-on-Chip; assay type: cell-based; conditions: isoproterenol 50 nM; basal beat rate 60 beats per minute; FIG. 5C
Source text: HUVECs (Lonza) were expanded in EGM media (Lonza) and used at passages 2-6 in the chip experiments. Human induced pluripotent stem cell-derived cardiomyocytes hiPSC-CMs, Cor.4U, Axiogenesis) were handled according to the vendor's instructions and used a passage 1 after thawing. Briefly, cryopreserved cells were thawed on fibronectin-coated cell culture vessels in the presence of 5 […] puromycin to select for MYH6-positive cells. Three hours after thawing, the puromycin containing media was gently refreshed to wash out remaining cryopreservant (DMSO). Twenty-four hours after seeding, cell culture media was refreshed without puromycin. The following day, the cardiomyocytes were replated into the chips using 0.5% trypsin. […]
Spontaneous cardiac field potentials (“FPs”) are recorded from cardiomyocytes using Platinum and Platinum Black MEAs with the commercial Multi-Channel-System USB-MEA60-Inv-BC-System, Multi-Channel-Systems (MCS) GmbH. […] Cardiac FPs are recorded for 120 seconds for each measurement using Cardio2D software and are analyzed with Cardio2D+ (both from Multi Channel Systems). Measured parameters, including FP duration (FPD, milliseconds), peak-to-peak interval (PPI, seconds), beating rate (beats per minute), and conduction velocity (CV, centimer s_1) are exported into Microsoft Excel files for further analysis. […]

[4] = system: myocardial tissue (cardiomyocytes); test: Immunohistochemistry of myocardial tissue on the MEA platform (alpha-actinin); assay type: cell-based, human; conditions: isoproterenol treatment; FIGS. 4D-4E
Experimental: (§1) Cardiomyocytes are seeded at 2*10^6 cell per mL in the basal microchannel, followed by 3 hours to overnight inculcation, before connecting both channels 116, 117, 216, 217 to flow at 60 microliters (“μL”)/hr. Flow is controlled by a peristaltic pump (Ismatech) and connections re in Pharmed tubing (Cole-Parmer) having a 0.511 inner diameter. […] To challenge the endothelial barrier TNF (Sigma) is added at 2 μg/mL in the bottom microchannel 117, 217 during overnight flow. Isoproterenol (Sigma) 50 nanomolar (“nM”) is added to the endothelial microchannel for 30 minutes followed by MEA measurement.
Chips are rinsed in phosphate-buffered saline and fixated in 4% paraformaldehyde (Sigma) for 15 minutes at room temperature. ICC is carried out after permeabilization in phosphate-buffered saline with 0.05-0.1% Triton X-100 (Sigma) and blocking for 30 minutes in 3-5% Bovine Serum Albumin (Jackson ImmunoResearch, West Grove, Pa.) or 10% goat serum in phosphate-buffered saline with 0.05-0.1% Triton-X 100. Primary antibodies are applied in 2% goat serum or 0.5% BSA over-night at 4° C. or at RT […]

[5] = system: endothelial layer (HUVECs); test: TEER and capacitance measurement of the endothelial layer in the MEA-TEER Heart-on-Chip; assay type: cell-based, human; conditions: for effect on TEER values / endothelial barrier: TNF-α 2 μg/mL overnight, isoproterenol 50 nM, 30 minutes, FIG. 5A, 5B
Experimental: The MEA-TEER chips are surface-treated with an oxygen plasma (Atto, Diener electronic GmbH, Germany at O2, 15 standard cubic centimeters per minute (“sccm”), 100 Watts, 30 seconds) to create hydrophilic, sterile, flow systems. Both apical and basal channels 116, 117, 216, 217 are coated overnight with human fibronectin (Sigma at 100 micrograms (“μg”/mL in PBS with Mg^2+ and Ca^2+ at 4° C.). HUVECs were seeded at 2*10^6 cell per mL in the apical microchannel, and, then, left static overnight.
as §1
TEER measurements are carried out by applying a 10 microamperes (“μA”) sinusoidal excitation signal in a four-electrode set-up in the frequency range 100 KHz-10 hertz (“Hz”). AC measurements are preferable for TEER measurements to avoid charging effects over the cell membranes and the electrodes. The four-electrode set-up, utilizing one opposing pair of electrodes for current excitation and another opposing pair of electrodes for voltage sensing, provides benefits of eliminating contact resistance associated with two electrode measurements.
TEER and capacitance values are derived using the equivalent circuit and model depicted in FIGS. 3A, 6A, and 6B. A resistor Rsol describes the solution conductivity, while the electric response of the endothelial layer is modeled using a resistor (RTEER) and a constant phase element (CPEt) in parallel to extract TEER of the cell-cell junctions, as well as the contribution of cell membrane capacitance and, indirectly, the overall monolayer surface area.

hamster cardiomyocytes = conditions: TNF-α at 200 nanograms/ml^3; cited from earlier work

For `CC(C)NCC(O)c1ccc(O)c(O)c1` (stereo not shown) [isoproterenol], the “integrity of the endothelial barrier by ICC” value [1] is listed as “does not show any change in integrity of a barrier”, the “change of beat rate” value [2] is listed as 60% and the “increase in beat rate” value [3] is listed as 60%. For the same compound, the “changes of cardiomyocytes by IHC versus control” value [4] was “do not show major changes” and the “effect on TEER values / endothelial barrier” value [5] was “does not affect the endothelial barrier”.

For TNF-α, the “contractility of hamster cardiomyocytes” value (hamster cardiomyocytes) is listed as “reduce contractility”, the “effect on TEER values / endothelial barrier” value [5] is listed as “TEER values decrease to the same values as ECM-coated chips without cells chip” and the “capacitance after the TNF-α challenge” value ([5]; TNF-α 2 μg/mL, from 194±33 nF after stabilization at day 2) is listed as 2968±52 nF. The “effect on TEER capacitance” value ([5]; TNF-α addition, FIG. 5B) was “increasing the capacitance significantly” and the “TEER values after TNF-α challenge” value ([5]; after 24 hours TNF-α 2 μg/mL, dropping from 230±45 Ω before challenge, p<0.01) was 15±13 Ω.
